Test results published in PubChem BioAssay (NCI).
Several values for one entry are separate records, joined by “and”; a condition that tells them apart may be missing. Equal entries are not always repeated.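 Step 1: Grow cells in 96-well plates. Step 2: Expose to compound for 48 hours at 5 concentrations. Step 3: Interpolate endpoints linearly; if unreached, use highest concentration. GI50 = concentration required for 50% inhibition of growth. TGI: total growth inhibition.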

Tested on: MDA-MB-468 breast
Experiment: NCI anticancer screen, dose series, 48 h

SMILES: CCN(CC)CCN1C(=O)c2c(c(C)c3c(oc4cc(O)ccc43)c2C)C1=O
- GI50: 1460 nM
- TGI: 3010 nM

SMILES: Cl.[Pt].[c-]1ccccc1-c1ccccn1.c1ccc(P(c2ccccc2)C([PH+](c2ccccc2)c2ccccc2)[PH+](c2ccccc2)c2ccccc2)cc1
- GI50: 571 nM
- TGI: 4210 nM

SMILES: S=c1nc(-c2ccccc2)oc(=NC2CCCCC2)n1C1CCCCC1
- GI50: 1970 nM
- TGI: 4830 nM

SMILES: CCN1CCN(c2nc(NNC(=O)Cc3ccccc3)nc(N3CCN(C(c4ccccc4)c4ccccc4)CC3)n2)CC1
- GI50: 1950 nM
- TGI: 4520 nM

SMILES: COc1ccc(/C=C/c2c(C(=O)/C=C/c3ccc(Cl)cc3)c(C)nc3ccccc23)cc1
- GI50: 1790 nM
- TGI: 3540 nM

SMILES: N#Cc1c(NC(=O)c2ccccc2)sc2c1CCC(=O)C2
- GI50: 2190 nM
- TGI: 6940 nM

SMILES: COc1ccc(-c2nn(-c3cccc(Cl)c3)cc2C=C(C#N)C#N)cc1
- GI50: 1670 nM
- TGI: 4960 nM

SMILES: CC1(C)N=C(N)N=C(N)N1c1cccc(C#N)c1
- GI50: 2310 nM
- TGI: > 100000 nM

SMILES: COc1ccc(SC2c3cc(OC)c(OC)cc3Oc3nc(N)c(C#N)c(N)c32)cc1 (configuration not stated)
- GI50: 320 nM
- TGI: 1530 nM

SMILES: O=C(/C=C/c1ccc(C(F)(F)F)cc1)c1ccc(Nc2nc(NCCO)nc(NCCO)n2)cc1
- GI50: 2020 nM
- TGI: 5070 nM

SMILES: Cn1nc(C(F)(F)F)c(-c2ccc(Cl)c(C(F)(F)F)c2)c1-c1ccc(OCc2ccc(Cl)cc2)cc1O
- GI50: 1340 nM
- TGI: 3650 nM

SMILES: C/C(=N\NC(N)=O)C(CN1CCCCC1)C(c1ccccc1)c1c(O)c2ccccc2oc1=O (configuration not stated)
- GI50: > 100000 nM
- TGI: > 100000 nM

SMILES: COc1ccc(-c2ccc3c(NC(=O)C4CC4)n[nH]c3n2)cc1
- GI50: > 25000 nM
- TGI: > 25000 nM

SMILES: O=C1c2ccccc2C(=O)c2c1ccc(C(Br)Br)c2[N+](=O)[O-]
- GI50: 541 nM
- TGI: 2280 nM

SMILES: CN(C)CCCNc1nn2c(=O)c3ccccc3nc2c2ccccc12
- GI50: 6230 nM
- TGI: 20000 nM

SMILES: CC1(C)CCC[C@]23C(=O)O[C@](O)(C(=O)C4=C[C@@](C)(/C=C/CCCc5ccc6ccc7cccc8ccc5c6c78)CC[C@@]42O)[C@@H]13
- GI50: 196 nM
- TGI: 409 nM

SMILES: CC(=O)Oc1ccc(OC(C)=O)c2ccccc12
- GI50: 477 nM
- TGI: 2190 nM

SMILES: O=C(NCc1cccnc1)/C(=C\c1ccc(Br)cc1)S(=O)(=O)c1ccccc1
- GI50: 266 nM
- TGI: 933 nM

SMILES: COc1ccc(/C(C)=C(\c2ccc(Cl)cc2)c2ccc(OCCN3CCCC3)cc2)cc1
- GI50: 4030 nM
- TGI: 8850 nM

SMILES: CCCS(=O)(=O)Nc1ccc(F)c(C(=O)c2c[nH]c3ncc(-c4ccc(Cl)cc4)cc23)c1F
- GI50: 3550 nM and 5650 nM
- TGI: 20100 nM and > 10000 nM

SMILES: Nc1ncnc2c1c(C(F)(F)F)cn2[C@@H]1O[C@H](CO)[C@@H](O)[C@H]1O
- GI50: 242 nM
- TGI: 2140 nM

SMILES: CC(=O)OCC1OC(OC2C(COC(C)=O)OC(OCCC[S-])C(OC(C)=O)C2OC(C)=O)C(OC(C)=O)C(OC(C)=O)C1OC(C)=O.[Au+].c1ccc(CN2[CH-]N(Cc3ccccc3)C(c3ccccc3)=C2c2ccccc2)cc1 (configuration not stated)
- GI50: 2810 nM
- TGI: 12400 nM

SMILES: CN1/C(=C\C(I)C(I)C2=[N+](C)c3ccccc3C2(C)C)C(C)(C)c2ccccc21 (configuration not stated)
- GI50: 72.3 nM
- TGI: 1240 nM

SMILES: CCSc1oc(-c2ccccc2)nc1[P+](c1ccccc1)(c1ccccc1)c1ccccc1
- GI50: 168 nM
- TGI: 676 nM

SMILES: CCCCCCCCCCCCn1c(C)nc2ccccc21
- GI50: 601 nM
- TGI: 19400 nM

SMILES: O=C1NC(=O)/C(=C/C=C/c2ccccc2)S1
- GI50: 10900 nM
- TGI: 56000 nM

SMILES: C[C@]12O[C@H](C[C@]1(O)CO)n1c3ccccc3c3c4c(c5c6ccccc6n2c5c31)CNC4=O
- GI50: 457 nM and 185 nM
- TGI: 2570 nM and 1650 nM

SMILES: COc1ccc(-c2ccc(/C=C/C(=O)NO)cc2)cc1
- GI50: 463 nM
- TGI: 2620 nM

SMILES: CCOC(=O)c1sc(-c2ccc(OS(=O)(=O)c3cccs3)c(C=O)c2)nc1C
- GI50: 1310 nM
- TGI: 4950 nM

SMILES: COc1ccc(C(=O)c2cc(OC)c(OC)c(OC)c2)cc1OC(C)=O
- GI50: 754 nM

SMILES: Nc1ccc(-c2nc3ccc4[nH]ncc4c3c3c2CCCC3)cc1F
- GI50: 126 nM
- TGI: 625 nM

SMILES: COc1cc(C)c(C(=O)O[C@H]2[C@H](O[C@H]3[C@@H](O)COC(O[C@H]4C[C@H]5[C@@H]6CC=C7C[C@@H](O)CC[C@]7(C)[C@H]6CC[C@]5(C)[C@H]4[C@H](C)C(=O)CCC(C)C)[C@@H]3OC(C)=O)OC[C@@H](O)[C@@H]2O)c(C)c1 (some centres not stated)
- GI50: 17.1 nM
- TGI: 1840 nM

SMILES: CC(C)C[C@H](NC(=O)[C@H](CCc1ccccc1)NC(=O)CN1CCOCC1)C(=O)N[C@@H](Cc1ccccc1)C(=O)N[C@@H](CC(C)C)C(=O)[C@@]1(C)CO1
- GI50: < 13.5 nM
- TGI: 36.2 nM

SMILES: C#CCN1C(=O)/C(=c2\sc3n(c2=O)C2C(NN=3)N(CC)C(=O)N2CC)c2ccccc21 (configuration not stated)
- GI50: 331 nM
- TGI: 3240 nM
